Data on five molecules can be found in article PMC6177136, “Hybrid topoisomerase I and HDAC inhibitors as dual action anticancer agents” (PLoS ONE, 2018).

Where two headings read alike, the source gives them in different places. Some results are limits rather than exact numbers.

The term IC80 denotes the point of the concentration-response curve where the effect stands at 80%. The term IC50 denotes the concentration that gives 50% inhibition.

Common to all, as to assay type: cell-based, Human
The subject of one test is H2A.X. The test can be described thus: Western blot, H2A.X induction in NCI-H460 cells. The following applies: 24 h; SAHA 5 μM, SN38 0.05 μM, 3d 0.125–0.2–0.5 μM. The method, then: (§1) The supernatant, containing the total proteins extracts, were transferred in new vials. The protein concentration was measured by Bradford Protein Assay. Equal amounts of proteins for each sample were then resolved by SDS-PAGE and loaded on 10–12% polyacrilamide gels. The proteins were then transferred on nitrocellulose membranes. Molecular weights were estimated based upon the relative migration with molecular weight protein markers.
(§2) The non-specific binding was blocked by incubation of membranes in TBS-tween (25 mM Tris, 150 mM NaCl, 0.1% Tween 20) with 5% nonfat dry milk (BIORAD, Milan) for 60 minutes. Subsequently, the membrane was incubated overnight with primary antibodies: anti-Histone H4 (Millipore, 1:500), anti-acetyl-H4 (Santa Cruz, 1:1000) anti-p21 (Santa Cruz, 1:1000), anti-acetyl-tubulin (abcam, 1:1000), anti-α-tubulin (Sigma, 1:5000), anti β-actin (Sigma, 1:5000) and anti-Topoisomerase 1 (Santa Cruz, 1:500). After three washes with TBST blots were incubated with HRP-coniugated secondary anti-mouse and anti-rabbit (Santa Cruz, 1:5000) 1 hour at room temperature. After three washes with TBST the blots were developed with ECL substrate (GE Healthcare) and chemiluminescence detected by ChemiDoc Imaging System (Biorad). The optical density of the protein bands detected by western blotting was normalized on α -tubulin levels and analyzed by ChemiDoc software (Biorad).
(§3) Cells were lysed in 0.5% NP-40 and 40 μg of total proteins were loaded on NuPAGE 4–12% (Invitrogen), transferred to a nitrocellulose paper and probed with specific antibodies.
(In general: Immunoblotting shows a protein as a band on a membrane.)

In another test the test system is p16. In words: Western blot, p16 in NCI-H460 cells. The following applies: 24 h; SAHA 5 μM, SN38 0.05 μM, 3d 0.125–0.2–0.5 μM. The method, then: as §1, §2, §3
Another test has as its system CycD1. In words: Western blot, CycD1 in NCI-H460 cells. The following applies: 24 h; SAHA 5 μM, SN38 0.05 μM, 3d 0.125–0.2–0.5 μM. Here is the method: as §1, §2, §3
A further test relates to p53. The test can be described thus: Western blot, p53 in NCI-H460 cells. Particulars: 24 h; SAHA 5 μM, SN38 0.05 μM, 3d 0.125–0.2–0.5 μM. The method, then:
as §1, §2, §3

For another test, the system named is NCI-H460. In words: Cytotoxicity assay (SRB, 72 h) NCI-H460. Particulars: for IC50: 72 h, SRB assay, read-out: IC50 ± SD NCI-H460.
The subject of the next test is Capan 1. In words: Cytotoxicity assay (SRB, 72 h) Capan 1.
The test system of the next test is MM487. In words: Cytotoxicity assay, primary mesothelioma MM487.
In another test the test system is MM432. In words: Cytotoxicity assay, primary mesothelioma MM432.
The subject of the next test is MM481. The test can be described thus: Cytotoxicity assay, primary mesothelioma MM481. Particulars: epithelioid, 72 h, SBR assay; read-out: IC50 ± SD MM481.
In a further test the test system is MM404. In words: Cytotoxicity assay, primary mesothelioma MM404. The following applies: epithelioid, 72 h, SBR assay; read-out: IC50 ± SD MM404.
Another test relates to MM288. In words: Cytotoxicity assay, primary mesothelioma MM288.
Another test concerns MM317. The test can be described thus: Cytotoxicity assay, primary mesothelioma MM317. Particulars: epithelioid, 72 h, SBR assay; read-out: IC50 ± SD MM317.
Another test deals with MM473. The test can be described thus: Cytotoxicity assay, primary mesothelioma MM473. The following applies: epithelioid, 72 h, SBR assay; read-out: IC50 ± SD MM473.
The subject of a further test is MM491. The test can be described thus: Cytotoxicity assay, primary mesothelioma MM491. Particulars: biphasic, 72 h, SBR assay; read-out: IC50 ± SD MM491.
Another test concerns A2780-Dx. In words: Cytotoxicity assay (SRB, 72 h) A2780-Dx. Particulars: for RI (Resistance Index): A2780-Dx versus A2780; for IC50: 72 h, SRB assay, multidrug-resistant ovarian carcinoma, read-out: IC50 ± SD A2780-Dx. On the technique in general: Sulforhodamine B stains cellular protein and so reports cell mass.
A further test has as its system DU145. In words: Cytotoxicity assay (SRB, 72 h) DU145.
A further test relates to HepG2. In words: Cytotoxicity assay (SRB, 72 h) HepG2.
For another test, the system named is A2780. In words: Cytotoxicity assay (SRB, 72 h) A2780.
The test system of another test is HeLa. In words: Cytotoxicity assay (SRB, 72 h) HeLa. Particulars: read-out: IC50 ± SD HeLa.
In the next test the test system is A431. The test can be described thus: Cytotoxicity assay (SRB, 72 h) A431.
In another test the test system is HT29. In words: Cytotoxicity assay (SRB, 72 h) HT29.
A further test has as its system MINO. In words: Cytotoxicity assay (MTT, 72 h) MINO. Particulars: 72 h, MTT assay; read-out: IC50 ± SD MINO.
The subject of a further test is NB4. In words: Cytotoxicity assay (MTT, 72 h) NB4. Particulars: read-out: IC50 ± SD NB4.
Another test deals with JECO-1. The test can be described thus: Cytotoxicity assay (MTT, 72 h) JECO-1. Particulars: 72 h, MTT assay; read-out: IC50 ± SD JECO-1.
The next test concerns KM-H2. In words: Cytotoxicity assay (MTT, 72 h) KM-H2. Particulars: 72 h, MTT assay; read-out: IC50 ± SD KM-H2.
The subject of the next test is L-428. In words: Cytotoxicity assay (MTT, 72 h) L-428. The following applies: 72 h, MTT assay; read-out: IC50 ± SD L-428. The method, then:
(§4) Human tumor cells were seeded in 96-well cell culture plastic plates, allowed to attach, and exposed to scalar concentrations of the test compounds.

A further test has as its system OCI-LY3. In words: Cytotoxicity assay (MTT, 72 h) OCI-LY3. Particulars: 72 h, MTT assay; read-out: IC50 ± SD OCI-LY3. Here is the method: as §4
For orientation: Tetrazolium dyes change colour on reduction, which living cells bring about.

Another test concerns U-2932. In words: Cytotoxicity assay (MTT, 72 h) U-2932. The following applies: read-out: IC50 ± SD U-2932.
A further test relates to MAVER-2. The test can be described thus: Cytotoxicity assay (MTT, 72 h) MAVER-2. Particulars: read-out: IC50 ± SD MAVER-2.
A further test has as its system DG-75. The test can be described thus: Cytotoxicity assay (MTT, 72 h) DG-75.
Where [1] appears, read: Homo sapiens, CAPAN-1, read-out: IC50 ± SD Capan 1.
[2] abbreviates: meaning not defined in the paper.

In the case of `CCc1c2c(nc3ccc(O)cc13)-c1cc3c(c(=O)n1C2)COC(=O)[C@]3(O)CC` [SN38], in the test on H2A.X, the “H2A.X induction (DNA damage)” value was “completely ineffective in H2A.X induction”. Also, the P16 regulation result with p16 is “didn’t show any effect”. For the same molecule, in the test on CycD1, the CycD1 regulation result was “didn’t show any effect”. In the test with p53, the p53 activation entry is on record as “less effective in p53 up-regulation”. In addition, in the test with NCI-H460 (NCI-H460 cells), the IC80 is around 50 nM.
As for `CC[C@@]1(O)C(=O)OCc2c1cc1n(c2=O)Cc2c-1nc1ccccc1c2C=NOCC(=O)NO` [Compound 3a, Camptothecin-7-yl(methyleneaminooxy)-acetic acid hydroxyamide], the IC50 came to 50 ± 6 nM in the test with Capan 1 (setting [1]) and 360 ± 100 nM in the test with NCI-H460 (Homo sapiens, NCI-H460).
Consider `O=c1[nH]cc(F)c(=O)[nH]1` [Compound 5-FU], for which the IC50 in the test on MM487 (biphasic, 72 h, SBR assay, read-out: IC50 ± SD MM487) was above 200000 nM; in the test with MM432 (sarcomatoid, 72 h, SBR assay, read-out: IC50 ± SD MM432), above 200000 nM; in the test with MM481 it was 27400 ± 2200 nM; in the test on MM404 it was 52200 ± 8700 nM; with MM288 (epithelioid, 72 h, SBR assay, read-out: IC50 ± SD MM288), above 200000 nM; in the test with MM317 it was 17900 ± 3100 nM. The IC50 with MM473 amounted to 35200 ± 8400 nM; in the test on MM491, 44000 ± 10300 nM. For the same molecule, in the test with MM487 (setting [2]), the “percentage in parentheses after IC50 >200, MM487” value turned out to be 48%. Moreover, in the test on MM432 (setting [2]), the “percentage in parentheses after IC50 >200, MM432” value stood at 34%. Further, the “percentage in parentheses after IC50 >200, MM288” value with MM288 (setting [2]) is reported as 35%.
On to `CC[C@@]1(O)C(=O)OCc2c1cc1n(c2=O)Cc2c-1nc1ccccc1c2C=NOCCCCCCC(=O)NO` [Compound 3c, 7-(camptothecin-7-ylmethyleneaminooxy)-heptanoic acid hydroxyamide], for which the “RI (Resistance Index)” value in the test with A2780-Dx came to 1.7. The IC50 in the test on A2780-Dx (Homo sapiens, A2780/DX) is 65 ± 10 nM; with DU145 (Homo sapiens, DU-145, read-out: IC50 ± SD DU145), 29 ± 1 nM; in the test with HepG2 (Homo sapiens, HepG2, read-out: IC50 ± SD HepG2), 680 ± 200 nM; with Capan 1 (setting [1]), 43 ± 3 nM; in the test on A2780 (Homo sapiens, A2780, read-out: IC50 ± SD A2780), 38 ± 8 nM; in the test with HeLa (Homo sapiens, HeLa), 2400 ± 500 nM. In addition, the IC50 turned out to be 26 ± 1 nM in the test with A431 (Homo sapiens, A-431, read-out: IC50 ± SD A431); 198 ± 180 nM with NCI-H460 (Homo sapiens, NCI-H460); 45 ± 10 nM with HT29 (Homo sapiens, HT-29, read-out: IC50 ± SD HT29).
In the case of `CCc1c2c(nc3ccc(OCCCCCCC(=O)NO)cc13)-c1cc3c(c(=O)n1C2)COC(=O)[C@]3(O)CC` [CY700], the IC50 in the test with A2780-Dx was 5900 ± 1000 nM; with DU145 (read-out: IC50 ± SD DU145), 870 ± 40 nM; in the test on HepG2 (read-out: IC50 ± SD HepG2) it was 1500 ± 400 nM; in the test with Capan 1 (read-out: IC50 ± SD Capan 1), 960 ± 80 nM; with MINO it was 370 ± 100 nM; in the test on A2780 (read-out: IC50 ± SD A2780), 2500 ± 300 nM. Further, the IC50 in the test with NB4 is 240 ± 60 nM; with JECO-1 it was 1000 ± 400 nM; in the test on KM-H2, 1500 ± 500 nM; in the test on HeLa it was 3300 ± 900 nM; with A431 (read-out: IC50 ± SD A431), 790 ± 100 nM; in the test with NCI-H460, 360 ± 20 nM. In addition, the IC50 was 1700 ± 200 nM in the test with L-428; 1200 ± 200 nM in the test on HT29 (read-out: IC50 ± SD HT29); 340 ± 40 nM in the test with OCI-LY3; 900 ± 300 nM with U-2932; 400 ± 80 nM with MAVER-2; above 10000 nM in the test on DG-75 (72 h, MTT assay, read-out: IC50 ± SD DG-75). Besides, in the test with A2780-Dx, the “RI (Resistance Index)” value is reported as 2.4. Further, in the test on DG-75 (meaning not defined in the paper, given beside >10 μM), the “percentage in parentheses after IC50 >10, DG-75” value worked out at 18%.
